The record followed here is the kinase profiling compilation of Christmann-Franck et al. (2016).

One assay concerns the target PRKAA2 (human) (UniProt P54646). Description: Caliper, Mobility shift assay off-chip.
A further assay addresses ABL2 (human) (UniProt P42684). The assay can be described thus: Caliper, Mobility shift assay off-chip.
The target of another assay is PDGFRA (human) (UniProt P16234). Description: Caliper, Mobility shift assay off-chip.
The next assay addresses BRAF (human) (UniProt P15056). Description: ELISA. (In an ELISA, binding on a coated surface is turned into a signal by an enzyme label.)
The target in the next assay is RAF1 (human) (UniProt P04049). The assay can be described thus: ELISA.
For a further assay, the target named is DDR1 (human) (UniProt Q08345). The assay can be described thus: Caliper, Mobility shift assay off-chip.
Another assay deals with DDR2 (human) (UniProt Q16832). Description: Caliper, Mobility shift assay off-chip.
The target in another assay is PDGFRB (human) (UniProt P09619). The assay can be described thus: Caliper, Mobility shift assay off-chip.
The target of a further assay is MAPK14 (human) (UniProt Q16539). The assay can be described thus: Caliper, Mobility shift assay off-chip.
MAPK14 (human), sequence (Q16539 whole entry, looked up): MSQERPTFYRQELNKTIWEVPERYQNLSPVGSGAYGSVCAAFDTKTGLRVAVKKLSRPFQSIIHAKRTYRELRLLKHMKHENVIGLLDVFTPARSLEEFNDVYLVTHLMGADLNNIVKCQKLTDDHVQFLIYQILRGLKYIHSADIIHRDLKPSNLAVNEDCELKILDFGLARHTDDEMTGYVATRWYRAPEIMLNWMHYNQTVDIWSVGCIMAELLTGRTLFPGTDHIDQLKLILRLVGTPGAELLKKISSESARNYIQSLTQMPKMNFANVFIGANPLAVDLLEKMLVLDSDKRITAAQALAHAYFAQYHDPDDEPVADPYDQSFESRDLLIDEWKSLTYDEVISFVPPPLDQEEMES
In a further assay the target is AURKA (human) (UniProt O14965). The assay can be described thus: Caliper, Mobility shift assay off-chip.
AURKA (human), sequence (O14965 whole entry, looked up): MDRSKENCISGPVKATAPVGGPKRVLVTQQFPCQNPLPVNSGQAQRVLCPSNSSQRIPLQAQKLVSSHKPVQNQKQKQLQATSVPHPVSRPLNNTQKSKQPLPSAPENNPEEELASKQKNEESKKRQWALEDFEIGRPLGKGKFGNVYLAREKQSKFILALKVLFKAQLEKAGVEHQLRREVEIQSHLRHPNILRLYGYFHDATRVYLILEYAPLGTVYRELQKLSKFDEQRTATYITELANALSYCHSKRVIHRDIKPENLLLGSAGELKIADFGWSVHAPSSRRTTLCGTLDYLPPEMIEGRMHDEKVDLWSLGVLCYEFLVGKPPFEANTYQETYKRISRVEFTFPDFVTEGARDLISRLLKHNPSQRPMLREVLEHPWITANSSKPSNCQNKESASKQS
For the next assay, the target named is MUSK (human) (UniProt O15146). The assay can be described thus: Caliper, Mobility shift assay off-chip.
MUSK (human), sequence (O15146 whole entry, looked up): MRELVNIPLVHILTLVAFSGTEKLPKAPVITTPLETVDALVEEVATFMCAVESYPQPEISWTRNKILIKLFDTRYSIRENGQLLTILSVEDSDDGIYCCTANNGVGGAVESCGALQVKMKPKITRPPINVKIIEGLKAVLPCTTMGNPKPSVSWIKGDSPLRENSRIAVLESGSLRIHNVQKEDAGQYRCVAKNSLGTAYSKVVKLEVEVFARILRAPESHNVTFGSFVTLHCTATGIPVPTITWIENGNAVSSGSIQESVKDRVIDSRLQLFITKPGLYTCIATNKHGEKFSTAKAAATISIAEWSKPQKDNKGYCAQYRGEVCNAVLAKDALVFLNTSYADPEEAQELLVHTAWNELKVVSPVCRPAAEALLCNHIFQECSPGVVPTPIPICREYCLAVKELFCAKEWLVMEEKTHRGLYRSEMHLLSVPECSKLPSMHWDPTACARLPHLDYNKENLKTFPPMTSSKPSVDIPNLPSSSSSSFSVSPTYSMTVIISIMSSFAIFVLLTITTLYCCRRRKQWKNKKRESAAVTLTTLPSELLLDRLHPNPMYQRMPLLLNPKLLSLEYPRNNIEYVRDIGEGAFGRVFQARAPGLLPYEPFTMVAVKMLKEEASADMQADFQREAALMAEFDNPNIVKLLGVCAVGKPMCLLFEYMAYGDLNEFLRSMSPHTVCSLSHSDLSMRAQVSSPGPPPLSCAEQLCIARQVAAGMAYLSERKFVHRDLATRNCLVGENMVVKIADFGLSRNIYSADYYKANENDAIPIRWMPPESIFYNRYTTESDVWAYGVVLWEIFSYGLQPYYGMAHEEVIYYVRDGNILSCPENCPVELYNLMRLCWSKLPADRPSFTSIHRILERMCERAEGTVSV
A further assay deals with HIPK4 (human) (UniProt Q8NE63). Description: Caliper, Mobility shift assay off-chip.
HIPK4 (human), sequence (Q8NE63 whole entry, looked up): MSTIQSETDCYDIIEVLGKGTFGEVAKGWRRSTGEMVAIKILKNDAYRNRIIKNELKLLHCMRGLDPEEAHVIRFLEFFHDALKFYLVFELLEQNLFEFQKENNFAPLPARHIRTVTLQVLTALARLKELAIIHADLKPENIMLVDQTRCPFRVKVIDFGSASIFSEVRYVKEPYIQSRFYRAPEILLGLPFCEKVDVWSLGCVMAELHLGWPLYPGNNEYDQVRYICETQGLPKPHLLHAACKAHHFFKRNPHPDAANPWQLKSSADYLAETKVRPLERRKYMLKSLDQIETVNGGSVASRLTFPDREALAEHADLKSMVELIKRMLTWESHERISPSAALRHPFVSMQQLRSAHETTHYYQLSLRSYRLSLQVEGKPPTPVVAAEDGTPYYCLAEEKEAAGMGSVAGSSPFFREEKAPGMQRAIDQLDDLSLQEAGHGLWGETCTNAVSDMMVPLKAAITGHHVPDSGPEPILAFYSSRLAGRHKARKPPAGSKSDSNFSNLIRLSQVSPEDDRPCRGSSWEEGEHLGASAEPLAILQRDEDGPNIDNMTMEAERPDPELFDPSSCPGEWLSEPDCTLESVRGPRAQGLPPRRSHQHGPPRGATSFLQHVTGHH
The target of a further assay is PRKAA1 (human) (UniProt Q13131). The assay can be described thus: Caliper, Mobility shift assay off-chip.
A further assay addresses CSF1R (human) (UniProt P07333). The assay can be described thus: Caliper, Mobility shift assay off-chip.
The next assay deals with EPHA6 (human) (UniProt Q9UF33). The assay can be described thus: Caliper, Mobility shift assay off-chip.
Another assay has as its target MAP2K3 (human) (UniProt P46734). The assay can be described thus: ELISA.
The next assay addresses MAP2K6 (human) (UniProt P52564). Description: ELISA.
For the next assay, the target named is FGFR2 (human) (UniProt P21802). Description: Caliper, Mobility shift assay off-chip.
FGFR2 (human), sequence (P21802 whole entry, looked up): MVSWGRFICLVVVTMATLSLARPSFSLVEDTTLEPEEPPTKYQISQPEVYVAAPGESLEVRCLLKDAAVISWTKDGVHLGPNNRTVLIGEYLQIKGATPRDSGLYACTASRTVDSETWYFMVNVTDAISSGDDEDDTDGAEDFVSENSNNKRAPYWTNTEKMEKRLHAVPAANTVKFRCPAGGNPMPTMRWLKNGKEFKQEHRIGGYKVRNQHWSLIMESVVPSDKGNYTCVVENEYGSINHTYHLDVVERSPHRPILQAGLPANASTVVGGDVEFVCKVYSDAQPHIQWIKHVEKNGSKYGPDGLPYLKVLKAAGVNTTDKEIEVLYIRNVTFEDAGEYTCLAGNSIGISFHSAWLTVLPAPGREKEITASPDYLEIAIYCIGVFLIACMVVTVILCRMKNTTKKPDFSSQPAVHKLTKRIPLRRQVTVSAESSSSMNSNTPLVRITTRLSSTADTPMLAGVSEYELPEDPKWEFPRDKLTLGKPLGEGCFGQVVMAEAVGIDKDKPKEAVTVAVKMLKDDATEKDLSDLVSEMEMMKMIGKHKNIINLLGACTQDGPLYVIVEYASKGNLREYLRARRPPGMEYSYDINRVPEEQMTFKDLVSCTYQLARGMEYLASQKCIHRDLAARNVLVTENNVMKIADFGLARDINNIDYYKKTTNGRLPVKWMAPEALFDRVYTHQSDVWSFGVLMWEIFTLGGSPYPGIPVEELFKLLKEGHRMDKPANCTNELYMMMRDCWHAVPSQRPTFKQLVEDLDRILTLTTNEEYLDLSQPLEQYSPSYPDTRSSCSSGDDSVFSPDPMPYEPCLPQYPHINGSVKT

ABL2 (human), sequence (P42684 whole entry, looked up): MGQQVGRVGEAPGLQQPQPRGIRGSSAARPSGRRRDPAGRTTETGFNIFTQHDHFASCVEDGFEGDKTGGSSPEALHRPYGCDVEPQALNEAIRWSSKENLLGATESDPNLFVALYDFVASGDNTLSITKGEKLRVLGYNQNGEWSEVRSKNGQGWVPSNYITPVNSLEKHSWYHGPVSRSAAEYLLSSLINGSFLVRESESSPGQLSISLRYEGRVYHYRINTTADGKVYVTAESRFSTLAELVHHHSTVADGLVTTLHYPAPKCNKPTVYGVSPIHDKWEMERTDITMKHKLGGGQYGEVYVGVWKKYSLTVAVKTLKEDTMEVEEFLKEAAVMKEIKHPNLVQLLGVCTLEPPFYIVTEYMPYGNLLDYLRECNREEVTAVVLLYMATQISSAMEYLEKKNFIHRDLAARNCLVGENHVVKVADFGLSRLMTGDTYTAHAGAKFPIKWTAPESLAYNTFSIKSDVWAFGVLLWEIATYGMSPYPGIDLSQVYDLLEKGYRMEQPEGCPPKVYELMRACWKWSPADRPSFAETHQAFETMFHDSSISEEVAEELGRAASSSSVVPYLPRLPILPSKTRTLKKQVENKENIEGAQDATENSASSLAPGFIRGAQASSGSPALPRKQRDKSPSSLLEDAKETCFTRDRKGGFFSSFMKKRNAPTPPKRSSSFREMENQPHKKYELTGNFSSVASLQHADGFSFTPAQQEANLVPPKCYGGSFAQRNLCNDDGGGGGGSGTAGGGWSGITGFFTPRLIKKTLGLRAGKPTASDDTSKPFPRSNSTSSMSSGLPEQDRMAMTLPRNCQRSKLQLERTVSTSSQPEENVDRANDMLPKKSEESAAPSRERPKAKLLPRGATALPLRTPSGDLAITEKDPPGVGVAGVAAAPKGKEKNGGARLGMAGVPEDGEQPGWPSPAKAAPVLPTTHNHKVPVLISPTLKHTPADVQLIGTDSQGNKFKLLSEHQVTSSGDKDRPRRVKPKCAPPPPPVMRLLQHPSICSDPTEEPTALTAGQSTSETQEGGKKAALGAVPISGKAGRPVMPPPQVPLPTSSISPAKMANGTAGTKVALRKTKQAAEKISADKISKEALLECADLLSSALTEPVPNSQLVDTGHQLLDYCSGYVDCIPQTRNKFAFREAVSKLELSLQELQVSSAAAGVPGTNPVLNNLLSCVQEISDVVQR
PRKAA2 (human), sequence (P54646 whole entry, looked up): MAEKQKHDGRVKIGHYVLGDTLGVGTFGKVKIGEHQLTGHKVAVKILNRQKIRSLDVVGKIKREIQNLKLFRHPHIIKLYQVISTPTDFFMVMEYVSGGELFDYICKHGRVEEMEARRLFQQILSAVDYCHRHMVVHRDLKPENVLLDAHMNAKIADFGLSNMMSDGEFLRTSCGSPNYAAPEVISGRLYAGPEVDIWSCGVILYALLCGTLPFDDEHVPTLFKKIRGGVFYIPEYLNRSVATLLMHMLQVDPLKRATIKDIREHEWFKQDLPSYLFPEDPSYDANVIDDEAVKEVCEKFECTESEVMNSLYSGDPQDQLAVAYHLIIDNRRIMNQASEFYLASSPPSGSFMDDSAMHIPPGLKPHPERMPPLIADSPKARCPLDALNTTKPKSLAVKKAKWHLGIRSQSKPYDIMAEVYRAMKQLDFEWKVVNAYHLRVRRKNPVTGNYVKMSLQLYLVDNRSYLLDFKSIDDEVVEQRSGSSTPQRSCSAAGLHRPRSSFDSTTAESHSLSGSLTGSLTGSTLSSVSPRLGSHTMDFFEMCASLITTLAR

Regarding `Cc1ccc(F)c(NC(=O)Nc2ccc(-c3cccc4[nH]nc(N)c34)cc2)c1`, the Ki was determined as 1670 nM at PRKAA2 (human); 5000 nM on ABL2 (human); 2.76 nM at PDGFRA (human); 5000 nM at BRAF (human); 5000 nM on RAF1 (human).

With `COc1cc2nccc(Oc3ccc(NC(=O)Nc4cc(C)on4)c(Cl)c3)c2cc1OC`, the Ki stood at 52 nM at DDR1 (human); 1.95 nM on DDR2 (human); 1500 nM at PRKAA2 (human); 1.4 nM at PDGFRB (human); 266 nM at MAPK14 (human); 86.5 nM on AURKA (human). Moreover, the Ki at MUSK (human) is 291 nM; at HIPK4 (human) it was 42.9 nM; on ABL2 (human), 52.5 nM; at PRKAA1 (human), 1500 nM; at CSF1R (human), 45.8 nM; on EPHA6 (human) it was 3.14 nM. Also, the Ki worked out at 272 nM on MAP2K3 (human) and 302 nM on MAP2K6 (human).

On to `Cc1cc2c(F)c(Oc3ncnn4cc(OC[C@@H](C)O)c(C)c34)ccc2[nH]1`, for which, on FGFR2 (human), the Ki is 18.1 nM.

One may read the Ki as a measure of affinity in units of concentration, obtained from inhibition or displacement.
